Values of other authors as cited in patent US20190328829A1, “TRIPARTITE COMBINATION THERAPY FOR PROSTATE CANCER” (UNIVERSITY OF MARYLAND, BALTIMORE, priority 2016, published 2019).

Columns and labels:
[1] = tested on: testosterone; conditions: males, continuous administration

| Compound | testosterone reduced to castrate levels [1] | solubility in water |
| --- | --- | --- |
| CCNC(=O)[C@@H]1CCCN1C(=O)[C@H](CCCNC(=N)N)NC(=O)[C@H](CC(C)C)NC(=O)[C@@H](CC(C)C)NC(=O)[C@H](Cc1ccc(O)cc1)NC(=O)[C@H](CO)NC(=O)[C@H](Cc1c[nH]c2ccccc12)NC(=O)[C@H](Cc1c[nH]cn1)NC(=O)[C@@H]1CCC(=O)N1 [leuprolide acetate, Leuprolide acetate] | below 50 ng/dL |  |
| O=c1c(-c2ccc(O)cc2)coc2cc(O)cc(O)c12 [Genistein, 5,7-dihydroxy-3-(4-hydroxyphenyl)-chromen-4-one] |  | virtually insoluble in water |
